Species: Rattus norvegicus
Assay: DrugMatrix - Regimen: Daily Repeat
Assay type: toxicity, organism-based, Sprague-Dawley
Parameters: regimen Daily Repeat, gender Male, age 6-8 weeks
Details: in vivo, po, 33 mg/kg, route oral GAVAGE, dose level Low, vehicle 100 % WATER; for ABSOLUTE BASOPHIL / ABSOLUTE EOSINOPHIL / ABSOLUTE LYMPHOCYTE / ABSOLUTE MONOCYTE / ABSOLUTE SEGMENTED NEUTROPHIL / BASOPHIL / EOSINOPHIL / ERYTHROCYTE COUNT / HEMATOCRIT / HEMOGLOBIN / LEUKOCYTE COUNT / LYMPHOCYTE / MEAN CORPUSCULAR HEMOGLOBIN / MEAN CORPUSCULAR HEMOGLOBIN CONCENTRATION / MEAN CORPUSCULAR VOLUME / MONOCYTE / NEUTROPHIL / NUCLEATED RED BLOOD CELLS / PLATELET COUNT: tissue Blood; for ALANINE AMINOTRANSFERASE / ALBUMIN / ALKALINE PHOSPHATASE / ASPARTATE AMINOTRANSFERASE / BLOOD UREA NITROGEN / CARBON DIOXIDE / CHLORIDE / CHOLESTEROL / CREATINE PHOSPHOKINASE / CREATININE / GLUCOSE / LACTATE DEHYDROGENASE / LIPASE / PHOSPHORUS / POTASSIUM / SODIUM / TOTAL BILIRUBIN / TOTAL PROTEIN / URIC ACID: tissue Plasma

Structure (SMILES): C1CCN2C[C@@H]3C[C@@H](CN4CCCC[C@@H]34)[C@H]2C1 [SPARTEINE]
- ABSOLUTE BASOPHIL (72 h, time 3 day): 0 CELLS/uL
- ABSOLUTE EOSINOPHIL (72 h, time 3 day): 58.33 CELLS/uL
- ABSOLUTE LYMPHOCYTE (72 h, time 3 day): 13527.67 CELLS/uL
- ABSOLUTE MONOCYTE (72 h, time 3 day): 237.33 CELLS/uL
- ABSOLUTE SEGMENTED NEUTROPHIL (72 h, time 3 day): 1176.67 CELLS/uL
- BASOPHIL (72 h, time 3 day): 0%
- EOSINOPHIL (72 h, time 3 day): 0.33%
- ERYTHROCYTE COUNT (72 h, time 3 day): 5.67 x10E6/uL
- HEMATOCRIT (72 h, time 3 day): 36.13%
- HEMOGLOBIN (72 h, time 3 day): 14 G/DL
- LEUKOCYTE COUNT (72 h, time 3 day): 15 x10E3/uL
- LYMPHOCYTE (72 h, time 3 day): 90%
- MEAN CORPUSCULAR HEMOGLOBIN (72 h, time 3 day): 24.8 pg
- MEAN CORPUSCULAR HEMOGLOBIN CONCENTRATION (72 h, time 3 day): 38.83 G/DL
- MEAN CORPUSCULAR VOLUME (72 h, time 3 day): 63.9 fL
- MONOCYTE (72 h, time 3 day): 1.67%
- NEUTROPHIL (72 h, time 3 day): 8%
- NUCLEATED RED BLOOD CELLS (72 h, time 3 day): 0.33 /100WBC
- PLATELET COUNT (72 h, time 3 day): 1335 x10E3/uL
- ALANINE AMINOTRANSFERASE (72 h, time 3 day): 50.67 u/L
- ALBUMIN (72 h, time 3 day): 3.9 G/DL
- ALKALINE PHOSPHATASE (72 h, time 3 day): 377.67 u/L
- ASPARTATE AMINOTRANSFERASE (72 h, time 3 day): 91 u/L
- BLOOD UREA NITROGEN (72 h, time 3 day): 15 mg/dL
- CARBON DIOXIDE (72 h, time 3 day): 25.67 mmol/L
- CHLORIDE (72 h, time 3 day): 102 MEQ/L
- CHOLESTEROL (72 h, time 3 day): 61.33 mg/dL
- CREATINE PHOSPHOKINASE (72 h, time 3 day): 251.67 u/L
- CREATININE (72 h, time 3 day): 0.12 mg/dL
- GLUCOSE (72 h, time 3 day): 152 mg/dL
- LACTATE DEHYDROGENASE (72 h, time 3 day): 249 u/L
- LIPASE (72 h, time 3 day): 9 u/L
- PHOSPHORUS (72 h, time 3 day): 13.2 mg/dL
- POTASSIUM (72 h, time 3 day): 6.44 MEQ/L
- SODIUM (72 h, time 3 day): 143.4 MEQ/L
- TOTAL BILIRUBIN (72 h, time 3 day): 0.13 mg/dL
- TOTAL PROTEIN (72 h, time 3 day): 5.73 G/DL
- URIC ACID (72 h, time 3 day): 1.43 mg/dL
- ABSOLUTE BASOPHIL (120 h, time 5 day): 0 CELLS/uL
- ABSOLUTE EOSINOPHIL (120 h, time 5 day): 62 CELLS/uL
- ABSOLUTE LYMPHOCYTE (120 h, time 5 day): 7311 CELLS/uL
- ABSOLUTE MONOCYTE (120 h, time 5 day): 83 CELLS/uL
- ABSOLUTE SEGMENTED NEUTROPHIL (120 h, time 5 day): 677.33 CELLS/uL
- BASOPHIL (120 h, time 5 day): 0%
- EOSINOPHIL (120 h, time 5 day): 0.67%
- ERYTHROCYTE COUNT (120 h, time 5 day): 5.58 x10E6/uL
- HEMATOCRIT (120 h, time 5 day): 34.4%
- HEMOGLOBIN (120 h, time 5 day): 13.3 G/DL
- LEUKOCYTE COUNT (120 h, time 5 day): 8.13 x10E3/uL
- LYMPHOCYTE (120 h, time 5 day): 90.33%
- MEAN CORPUSCULAR HEMOGLOBIN (120 h, time 5 day): 23.87 pg
- MEAN CORPUSCULAR HEMOGLOBIN CONCENTRATION (120 h, time 5 day): 38.67 G/DL
- MEAN CORPUSCULAR VOLUME (120 h, time 5 day): 61.8 fL
- MONOCYTE (120 h, time 5 day): 1%
- NEUTROPHIL (120 h, time 5 day): 8%
- NUCLEATED RED BLOOD CELLS (120 h, time 5 day): 0 /100WBC
- PLATELET COUNT (120 h, time 5 day): 1046.67 x10E3/uL
- ALANINE AMINOTRANSFERASE (120 h, time 5 day): 55.33 u/L
- ALBUMIN (120 h, time 5 day): 3.93 G/DL
- ALKALINE PHOSPHATASE (120 h, time 5 day): 372 u/L
- ASPARTATE AMINOTRANSFERASE (120 h, time 5 day): 82.67 u/L
- BLOOD UREA NITROGEN (120 h, time 5 day): 16.33 mg/dL
- CARBON DIOXIDE (120 h, time 5 day): 31.67 mmol/L
- CHLORIDE (120 h, time 5 day): 102.33 MEQ/L
- CHOLESTEROL (120 h, time 5 day): 65.33 mg/dL
- CREATINE PHOSPHOKINASE (120 h, time 5 day): 351.67 u/L
- CREATININE (120 h, time 5 day): 0.16 mg/dL
- GLUCOSE (120 h, time 5 day): 143.67 mg/dL
- LACTATE DEHYDROGENASE (120 h, time 5 day): 104.67 u/L
- LIPASE (120 h, time 5 day): 10 u/L
- PHOSPHORUS (120 h, time 5 day): 10.67 mg/dL
- POTASSIUM (120 h, time 5 day): 5.96 MEQ/L
- SODIUM (120 h, time 5 day): 145.73 MEQ/L
- TOTAL BILIRUBIN (120 h, time 5 day): 0.13 mg/dL
- TOTAL PROTEIN (120 h, time 5 day): 5.97 G/DL
- URIC ACID (120 h, time 5 day): 0.63 mg/dL

— ChEMBL document CHEMBL3885881, “DrugMatrix”
